Each compound was assayed against T1, AP-4-A phosphorylase (Mycobacterium tuberculosis (strain ATCC 25618 / H37Rv), UniProt P9WMK9) (assay: FRET assay). Details: pH 8.
T1 sequence (P9WMK9 whole entry): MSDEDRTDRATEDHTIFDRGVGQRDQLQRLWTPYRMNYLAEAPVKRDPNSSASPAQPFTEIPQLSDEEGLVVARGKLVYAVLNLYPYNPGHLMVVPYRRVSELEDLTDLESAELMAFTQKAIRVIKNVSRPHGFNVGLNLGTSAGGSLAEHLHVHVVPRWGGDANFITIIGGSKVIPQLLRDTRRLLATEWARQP
Experimental: Dose response curves against Rv2613c with 1 as the substrate for derivatives 5 and 18. 8 nM of Rv2613c were preincubated in buffer (20 mM Tris-HCl (pH 8.0), 50 mM NaCl, 1 mM DTT, 0.2 mg/mL BSA, 5 mM NaH2PO4, 5 mM MgCl2) with indicated amounts of compound solved in DMSO at 25°C for 30 min. Substrate 1 (2 µM in Tris-HCl buffer pH 8.0) was added Measurement of the fluorescence at 570 nm was conducted every 3 min over 1 h. Turnover of probe 1 was calculated by normalization to the intensity of controls. The rate of probe 1 turnover was obtained by linear fitting of probe 1 turnover over time. % Inhibition was calculated relative to the controls. The IC50 was calculated by a non-linear curve fit/dose response curve in Origin.
In the case of CS/C(Nc1cccc(C(F)(F)F)c1)=C(/C#N)S(=O)(=O)c1ccc(Cl)cc1 [Synthesized Sulfanylacrylonitril Derivatives 2], the IC50 is reported as 0.26 µM.
Work on CS/C(Nc1ccccc1)=C(/C#N)S(=O)(=O)c1ccccc1 [Synthesized Sulfanylacrylonitril Derivatives 3] yielded an IC50 greater than 30 µM.
With CS/C(Nc1ccccc1)=C(/C#N)S(=O)(=O)c1ccc(Cl)cc1 [Synthesized Sulfanylacrylonitril Derivatives 4] the IC50 was greater than 100 µM.
CS/C(Nc1cccc(C(F)(F)F)c1)=C(/C#N)S(=O)(=O)c1ccccc1 [Synthesized Sulfanylacrylonitril Derivatives 5] showed an IC50 of 0.12 µM.
CS/C(Nc1ccccc1C(F)(F)F)=C(/C#N)S(=O)(=O)c1ccccc1 [Synthesized Sulfanylacrylonitril Derivatives 6] showed an IC50 greater than 100 µM.
For CS/C(Nc1ccc(C(F)(F)F)cc1)=C(/C#N)S(=O)(=O)c1ccccc1 [Synthesized Sulfanylacrylonitril Derivatives 7], the IC50 was 16.3 µM.
CS/C(Nc1cc(C(F)(F)F)cc(C(F)(F)F)c1)=C(/C#N)S(=O)(=O)c1ccccc1 [Synthesized Sulfanylacrylonitril Derivatives 8] gave an IC50 greater than 100 µM.
CCCS/C(Nc1cccc(C(F)(F)F)c1)=C(/C#N)S(=O)(=O)c1ccccc1 [Synthesized Sulfanylacrylonitril Derivatives 10] gave an IC50 of 0.47 µM.
CC(C)S/C(Nc1cccc(C(F)(F)F)c1)=C(/C#N)S(=O)(=O)c1ccccc1 [Synthesized Sulfanylacrylonitril Derivatives 11] gave an IC50 of 0.94 µM.
In the case of N#C/C(=C(\Nc1cccc(C(F)(F)F)c1)SCc1ccccc1)S(=O)(=O)c1ccccc1 [Synthesized Sulfanylacrylonitril Derivatives 12], the IC50 is reported as 0.8 µM.
In the case of CS/C(Nc1cccc(C)c1)=C(/C#N)S(=O)(=O)c1ccccc1 [Synthesized Sulfanylacrylonitril Derivatives 14], the IC50 is reported as 4.62 µM.
Work on CS/C(Nc1cccc([N+](=O)[O-])c1)=C(/C#N)S(=O)(=O)c1ccccc1 [Synthesized Sulfanylacrylonitril Derivatives 15] yielded an IC50 of 1.3 µM.
Compound CS/C(Nc1cccc(C#N)c1)=C(/C#N)S(=O)(=O)c1ccccc1 [Synthesized Sulfanylacrylonitril Derivatives 16] has an IC50 of 2.51 µM.
COC(=O)c1cccc(N/C(SC)=C(\C#N)S(=O)(=O)c2ccccc2)c1 [Synthesized Sulfanylacrylonitril Derivatives 17] showed an IC50 of 21.8 µM.
With CCc1cccc(N/C(SC)=C(\C#N)S(=O)(=O)c2ccccc2)c1 [Synthesized Sulfanylacrylonitril Derivatives 18] the IC50 was 0.57 µM.
Work on CCCc1cccc(N/C(SC)=C(\C#N)S(=O)(=O)c2ccccc2)c1 [Synthesized Sulfanylacrylonitril Derivatives 19] yielded an IC50 of 0.96 µM.
CS/C(Nc1cccc(C(C)C)c1)=C(/C#N)S(=O)(=O)c1ccccc1 [Synthesized Sulfanylacrylonitril Derivatives 20] showed an IC50 of 1.77 µM.
Compound COc1cccc(N/C(SC)=C(\C#N)S(=O)(=O)c2ccccc2)c1 [Synthesized Sulfanylacrylonitril Derivatives 21] has an IC50 of 11.3 µM.
For CS/C(Nc1cc(C)cc(C)c1)=C(/C#N)S(=O)(=O)c1ccccc1 [Synthesized Sulfanylacrylonitril Derivatives 22], the IC50 was greater than 100 µM.
